Reference: ChEMBL document CHEMBL4616632, “Discovery of Cyclic Boronic Acid QPX7728, an Ultrabroad-Spectrum Inhibitor of Serine and Metallo-β-lactamases” (J Med Chem, 2020)

Columns and labels:
Enterobacter cloacae = experiment: Inhibition of Enterobacter cloacae ECL1002 AmpC assessed as minimum concentration of compound needed to reduce the MIC of aztreonam to 4 ug/ml
Escherichia coli [1] = experiment: Inhibition of Escherichia coli EC308 SHV-5 assessed as minimum concentration of compound needed to reduce the MIC of aztreonam to 4 ug/ml
Klebsiella pneumoniae [2] = experiment: Inhibition of Klebsiella pneumoniae KP1009 CTX-M-15 assessed as minimum concentration of compound required to reduce the MIC of aztreonam to 4 ug/ml
Pseudomonas aeruginosa = experiment: Inhibition of Pseudomonas aeruginosa PAM 2035 AmpC assessed as minimum concentration of compound needed to reduce the MIC of aztreonam to 4 ug/ml
Escherichia coli [3] = experiment: Inhibition of Escherichia coli EC302 TEM-10 assessed as minimum concentration of compound needed to reduce the MIC of aztreonam to 4 ug/ml
[4] = molecular target: Beta-lactamase (Klebsiella pneumoniae) (UniProt Q93LQ9); experiment: Inhibition of Klebsiella pneumoniae KP1004 KPC-2 assessed as minimum concentration of compound needed to reduce the MIC of aztreonam to 4 ug/ml
Chain of Beta-lactamase (Klebsiella pneumoniae) (Q93LQ9 as listed by the source): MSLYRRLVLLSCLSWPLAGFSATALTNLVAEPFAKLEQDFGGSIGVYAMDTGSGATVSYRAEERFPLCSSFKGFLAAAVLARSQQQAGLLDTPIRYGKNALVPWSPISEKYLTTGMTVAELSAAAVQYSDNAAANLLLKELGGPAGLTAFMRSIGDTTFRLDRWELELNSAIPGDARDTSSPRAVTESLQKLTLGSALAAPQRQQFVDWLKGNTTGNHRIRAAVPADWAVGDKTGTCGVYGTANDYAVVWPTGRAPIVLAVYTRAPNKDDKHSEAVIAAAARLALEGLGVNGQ

Klebsiella pneumoniae [5] = experiment: Inhibition of Klebsiella pneumoniae KP1160 IMP-26 assessed as minimum concentration of compound needed to reduce the MIC of meropenem to 1 ug/ml
Acinetobacter baumannii = experiment: Inhibition of Acinetobacter baumannii AB1053 OXA-72 assessed as minimum concentration of compound needed to reduce the MIC of meropenem to 8 ug/ml
Escherichia coli [6] = experiment: Inhibition of Escherichia coli KP308 SHV-5 assessed as minimum concentration of compound required to reduce the MIC of aztreonam to 4 ug/ml
Escherichia coli [7] = experiment: Inhibition of Escherichia coli ECM6625 SHV-5 assessed as minimum concentration of compound needed to reduce the MIC of aztreonam to 4 ug/ml
[8] = molecular target: Beta-lactamase OXA-23 (Acinetobacter baumannii) (UniProt Q9L4P2); experiment: Inhibition of Acinetobacter baumannii AB1054 OXA-23 assessed as minimum concentration of compound needed to reduce the MIC of meropenem to 8 ug/ml
Chain of Beta-lactamase OXA-23 (Acinetobacter baumannii) (Q9L4P2 whole entry): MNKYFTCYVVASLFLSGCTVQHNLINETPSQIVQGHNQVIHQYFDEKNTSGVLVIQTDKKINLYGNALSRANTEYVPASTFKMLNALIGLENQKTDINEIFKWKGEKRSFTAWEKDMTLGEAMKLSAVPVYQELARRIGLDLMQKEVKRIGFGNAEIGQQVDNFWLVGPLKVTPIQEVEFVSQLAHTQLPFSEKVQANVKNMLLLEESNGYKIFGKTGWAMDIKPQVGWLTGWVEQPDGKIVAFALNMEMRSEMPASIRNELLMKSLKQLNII

Klebsiella pneumoniae [9] = experiment: Inhibition of Klebsiella pneumoniae KP1081 NDM-1 assessed as minimum concentration of compound required to reduce the MIC of biapenem to 1 ug/ml
Escherichia coli [10] = experiment: Inhibition of Escherichia coli ECM6619 TEM-10 assessed as minimum concentration of compound needed to reduce the MIC of aztreonam to 4 ug/ml
Klebsiella pneumoniae [11] = experiment: Inhibition of Klebsiella pneumoniae KP1054 VIM-1 assessed as minimum concentration of compound required to reduce the MIC of biapenem to 1 ug/ml

SMILES | MEC (Enterobacter cloacae) [µg/mL] | MEC (Escherichia coli [1]) [µg/mL] | MEC (Klebsiella pneumoniae [2]) [µg/mL] | MEC (Pseudomonas aeruginosa) [µg/mL] | MEC (Escherichia coli [3]) [µg/mL] | MEC [4] [µg/mL] | MEC (Klebsiella pneumoniae [5]) [µg/mL] | MEC (Acinetobacter baumannii) [µg/mL] | MEC (Escherichia coli [6]) [µg/mL] | MEC (Escherichia coli [7]) [µg/mL] | MEC [8] [µg/mL] | MEC (Klebsiella pneumoniae [9]) [µg/mL] | MEC (Escherichia coli [10]) [µg/mL] | MEC (Klebsiella pneumoniae [11]) [µg/mL]
CSCC(=O)N[C@H]1Cc2ccc(SCCO)c(C(=O)O)c2OB1O | 5 | 0.04 | 1.25 | > 20 | 1.25 | 2.5 | – | – | – | – | – | – | – | –
CSCC(=O)N[C@H]1Cc2ccc(SC)c(C(=O)O)c2OB1O | 1.25 | 0.04 | 0.6 | 20 | 1.25 | 0.6 | – | – | – | – | – | – | – | –
O=C(O)c1cccc2c1OB(O)[C@@H]1C[C@H]21 | 0.3 | – | 0.6 | 0.6 | 0.16 | 0.16 | 20 | 5 | 0.3 | 0.3 | 10 | 0.6 | 0.16 | 0.16
CSCC(=O)N[C@H]1Cc2ccc(SCC(N)=O)c(C(=O)O)c2OB1O | 2.5 | 0.16 | 0.6 | > 20 | 1.25 | 2.5 | – | – | – | – | – | – | – | –
O=C(O)c1nccc2c1OB(O)CC2 | 1.25 | – | 2.5 | 0.3 | – | 0.16 | > 20 | 1.25 | – | 5 | 2.5 | 1.25 | 0.08 | 20
O=C(O)c1cccc2c1OB(O)CC2 | 5 | – | 20 | 0.6 | – | 0.6 | > 20 | > 20 | – | 20 | 20 | 1.25 | 10 | 10
C[C@@H]1Cc2cccc(C(=O)O)c2OB1O | > 20 | – | > 20 | 1.25 | > 20 | 5 | > 20 | > 20 | > 20 | > 20 | > 20 | 10 | > 20 | 20
CSCC(=O)N[C@H]1Cc2ccc(SC3CNC3)c(C(=O)O)c2OB1O | 10 | 0.6 | 0.6 | 20 | 5 | 1.25 | – | – | – | – | – | – | – | –
O=C(O)c1nccc2c1OB(O)[C@H]1C[C@@H]21 | 20 | – | 20 | 10 | 5 | 1.25 | > 20 | 5 | 10 | 10 | 10 | 20 | 5 | 20
O=C(O)c1c(F)ccc2c1OB(O)CC2 | 0.16 | – | 0.6 | 0.6 | – | 0.16 | > 20 | 2.5 | – | 0.6 | 2.5 | 0.6 | 0.08 | 5
CSCC(=O)N[C@H]1Cc2ccc(OCC(=O)O)c(C(=O)O)c2OB1O | 5 | 0.08 | 2.5 | > 20 | 5 | 5 | – | – | – | – | – | – | – | –
C[C@H]1Cc2cccc(C(=O)O)c2OB1O | 20 | – | > 20 | 1.25 | > 20 | 1.25 | > 20 | > 20 | 20 | 20 | > 20 | 1.25 | > 20 | 5
CSCC(=O)N[C@H]1Cc2ccc(OCCO)c(C(=O)O)c2OB1O | 5 | < 0.3 | 1.25 | > 20 | 2.5 | 1.25 | – | – | – | – | – | – | – | –
O=C(O)c1cccc2c1OB(O)[C@H]1C[C@@H]21 | 10 | – | 10 | 2.5 | 5 | 0.16 | > 20 | 20 | 5 | 5 | 20 | 1.25 | 5 | 10
O=C(O)c1nccc2c1OB(O)[C@@H]1C[C@H]21 | 5 | – | 2.5 | 2.5 | 0.3 | 0.6 | > 20 | 0.3 | 0.6 | 0.6 | 1.25 | 2.5 | 0.3 | 0.3
O=C(O)c1c(F)ccc2c1OB(O)[C@H]1C[C@@H]21 | 2.5 | – | 1.25 | 5 | 1.25 | 0.3 | > 20 | 5 | 1.25 | 1.25 | 10 | 5 | 1.25 | > 20

Second part, the compound after the results:

MEC (Enterobacter cloacae) [µg/mL] | MEC (Escherichia coli [1]) [µg/mL] | MEC (Klebsiella pneumoniae [2]) [µg/mL] | MEC (Pseudomonas aeruginosa) [µg/mL] | MEC (Escherichia coli [3]) [µg/mL] | MEC [4] [µg/mL] | MEC (Klebsiella pneumoniae [5]) [µg/mL] | MEC (Acinetobacter baumannii) [µg/mL] | MEC (Escherichia coli [6]) [µg/mL] | MEC (Escherichia coli [7]) [µg/mL] | MEC [8] [µg/mL] | MEC (Klebsiella pneumoniae [9]) [µg/mL] | MEC (Escherichia coli [10]) [µg/mL] | MEC (Klebsiella pneumoniae [11]) [µg/mL] | SMILES
0.3 | – | 1.25 | 5 | 1.25 | 0.16 | 2.5 | 2.5 | 1.25 | 1.25 | 5 | 5 | 1.25 | > 20 | COc1ccc2c(c1C(=O)O)OB(O)C(F)=C2
1.25 | – | 0.6 | 2.5 | 0.6 | 0.16 | 20 | 0.6 | 0.3 | 0.3 | 1.25 | 0.6 | 0.6 | 0.3 | COc1ccc2c(c1C(=O)O)OB(O)[C@H]1C[C@@H]21
2.5 | – | 2.5 | 10 | 5 | 1.25 | > 20 | 1.25 | 1.25 | 1.25 | 2.5 | 2.5 | 5 | 20 | COc1ccc2c(c1C(=O)O)OB(O)CC21CC1
10 | – | 10 | 10 | 20 | 2.5 | > 20 | 20 | 20 | 20 | > 20 | > 20 | 20 | > 20 | COc1ccc2c(c1C(=O)O)OB(O)C=C2
20 | – | > 20 | > 20 | > 20 | 10 | > 20 | > 20 | > 20 | > 20 | > 20 | > 20 | > 20 | > 20 | COc1ccc2c(c1C(=O)O)OB(O)C(CO)C2 (stereo not drawn)
10 | – | > 20 | 10 | > 20 | 5 | > 20 | > 20 | > 20 | > 20 | > 20 | 10 | > 20 | 5 | COc1ccc2c(c1C(=O)O)OB(O)C1(CC1)C2
10 | – | 10 | 10 | 10 | 5 | 20 | 5 | 10 | 10 | 10 | 10 | 10 | 5 | COc1ccc2c(c1C(=O)O)OB(O)C1CCC21 (stereo not drawn)
0.3 | – | 0.3 | 5 | 0.3 | 0.16 | 5 | 0.6 | 0.3 | 0.3 | 1.25 | 0.6 | 0.3 | 0.08 | COc1ccc2c(c1C(=O)O)OB(O)C1CC21 (stereo not drawn)
10 | – | 1.25 | 10 | 5 | 1.25 | > 20 | 5 | 1.25 | 1.25 | 10 | 2.5 | 5 | 10 | COc1ccc2c(c1C(=O)O)OB(O)C1C2C1(F)F (stereo not drawn)
10 | – | 20 | 20 | > 20 | 5 | > 20 | 10 | 20 | 20 | 10 | 2.5 | > 20 | 2.5 | COc1ccc2c(c1C(=O)O)OB(O)[C@@H](CCO)C2
2.5 | – | 10 | 20 | 5 | 1.25 | 2.5 | 2.5 | 5 | 5 | 10 | 0.6 | 5 | 0.16 | COc1ccc2c(c1C(=O)O)OB(O)C1(CO)CC21 (stereo not drawn)
